Source: PMC9457575 (Molecules, 2022)
“Also recorded” adds a separate entry of the source. Where two headings read alike, the source gives them in different places.

Legend:
[1] = Pharmacokinetic evaluation of brain exposure in mice; design: species or system C57BL/6 mice; details: female, C57BL/6, mouse, in vivo, C57BL6 mice, 3 mg/kg IP; for Cmax: brain, 0.5-4 h, read-out: brain maximum (Cmax) concentration; for Kp: read-out: brain:plasma Cmax ratio
Method: Female C57BL/6 mice were bred in house and used at ~10 weeks of age for pharmacokinetic (PK) testing. Three animals were tested per time point. Doses were formulated in 2% NMP in canola oil, and all compounds were delivered at 3 mg/kg by intraperitoneal injection (IP). Tissues were taken at 0.5, 1, 2, and 4 h post dose. Animals were subjected to whole body perfusion using saline prior to tissue collection. Brain samples were homogenized with 50:50 ethanol:water (1:5, v/v). Forty µL of the homogenate, 10 µL of acetonitrile, and 150 µL of 100 ng/mL reserpine in acetonitrile containing 0.1% formic acid were vortexed and centrifuged. Plasma samples were diluted with 10 µL of acetonitrile, 150 µL of 100 ng/mL reserpine in acetonitrile containing 0.1% formic acid, vortexed and centrifuged. Samples were subjected to LC/MS/MS analysis. Standards were prepared in blank samples and used for calibration curves. Chromatography was performed using a Phenomenex Luna C18 column.

[2] = molecular target: T1, human CB1 receptor (hCB1) (Homo sapiens, UniProt P21554); experiment: cAMP accumulation assay (Lance TR-FRET) in CHO-hCB1 cells; format: cell-based; details: for hCB1 cAMP Efficacy: % of the maximum CP55940 (full agonist) signal; for hCB1 cAMP Efficacy / EC50 / Emax / hCB1 cAMP EC50: mean ± SEM; for EC50 / hCB1 cAMP EC50: forskolin-stimulated; for Emax: read-out: hCB1 cAMP Efficacy, % of the maximum CP55940 (full agonist) signal
T1 construct: host or cells: Chinese Hamster Ovary (CHO) cells
Method: The cAMP assays were performed in Chinese Hamster Ovary (CHO) cells (Perkin Elmer, Cat # ES-110-C) stably expressing the human CB1 receptor (hCB1) cultured under standard cell culture conditions (37 °C, 5% carbon dioxide, DMEM media with 1% Penicillin/Streptomycin and 400 µg/mL G418) using the Lance™ assay kit and manufacturer’s instructions were closely followed (Perkin Elmer). In brief, stimulation buffer containing 1X Hank’s Balanced Salt Solution (HBSS), 5 mM HEPES, 0.1% BSA stabilizer, and 0.5 mM final IBMX was prepared and titrated to pH 7.4 at rt. Serial dilutions of the test compounds and 300 nM forskolin, both prepared at 4× the desired final concentration in stimulation buffer, were added to a 96-well white ½ area microplate (PerkinElmer). The CHO-hCB1 cells were lifted with a non-enzymatic solution (Cell-stripper, Mediatech Inc., Orlando, FL, USA), and 4000 cells were added to each well. After incubating for 30 min at room temperature, Eu-cAMP tracer and uLIGHT-anti-cAMP working solutions were added per the manufacturer’s instructions. After incubation for 1 h, the TR-FRET signal (ex 337 nm, em 620 and […]) was read on a CLARIO star multimode plate reader (BMG Biotech, Cary, NC, USA). Data were analyzed using Prism software (GraphPad, La Jolla, CA, USA). Nonlinear regression analysis was performed to fit data and obtain maximum response (Emax), EC50, correlation coefficient (r^2), and other parameters. All experiments were performed in duplicate 2–3 times to ensure reproducibility and data are reported as mean ± standard error of mean unless noted otherwise.

[3] = molecular target: hCB1 (Homo sapiens, UniProt P21554); experiment: Radioligand displacement of [3H]CP55940; details: average of 3 measurements, read-out: Binding affinity (Ki)
Method: Further characterization of 21 was performed using radioligand displacement of [^3H]CP55940 and equilibrium dissociation constant (Ki) value was determined as described previously. Data reported are average values from 3 measurements with <30% standard error.

[4] = hCB1 cAMP EC50, CHO cells stably expressing hCB1
[5] = CHO cells stably expressing hCB1, read-out: hCB1 cAMP EC50
[6] = CHO cells stably expressing hCB1

T1 sequence (P21554 whole entry): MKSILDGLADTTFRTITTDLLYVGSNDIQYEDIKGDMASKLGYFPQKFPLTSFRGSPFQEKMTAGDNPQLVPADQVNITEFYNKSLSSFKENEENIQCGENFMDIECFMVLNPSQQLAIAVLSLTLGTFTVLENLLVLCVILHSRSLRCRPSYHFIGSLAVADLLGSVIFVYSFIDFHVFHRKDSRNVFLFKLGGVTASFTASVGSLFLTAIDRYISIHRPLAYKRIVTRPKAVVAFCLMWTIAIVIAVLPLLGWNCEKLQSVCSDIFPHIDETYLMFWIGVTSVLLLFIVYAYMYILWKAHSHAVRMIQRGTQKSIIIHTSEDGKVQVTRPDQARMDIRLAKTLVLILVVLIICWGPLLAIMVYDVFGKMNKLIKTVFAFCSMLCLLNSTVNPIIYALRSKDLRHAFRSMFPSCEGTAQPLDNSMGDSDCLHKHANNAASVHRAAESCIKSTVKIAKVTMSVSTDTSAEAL
Chain of hCB1 (P21554 whole entry): as above

| Compound | EC50 [2, 5] | Emax [2] | melting point | hCB1 cAMP EC50 [2, 6] | further results |
| --- | --- | --- | --- | --- | --- |
| N#Cc1c(Oc2cccc(OS(=O)(=O)CCCC(F)(F)F)c2)cccc1C(F)(F)F [Compound 1, 3-[2-Cyano-3-(trifluoromethyl)phenoxy]phenyl-4,4,4-trifluoro-1-butanesulfonate, reference compound] | – | – | – | – | Cmax [1]: ~341 ng/mL; Kp [1]: 0.4; hCB1 cAMP Efficacy [2]: 39 ± 11%; EC50 [2, 4]: 46 ± 5 nM |
| N#Cc1c(Oc2cccc(NS(=O)(=O)CCCC(F)(F)F)c2)cccc1C(F)(F)F [Compound 4, N-{3-[2-Cyano-3-(trifluoromethyl)phenoxy]phenyl}-4,4,4-trifluorobutane-1-sulfonamide] | 190 ± 46 nM | 96% | 96 to 97 °C | – | – |
| O=S(=O)(CCCC(F)(F)F)Nc1cccc(Oc2cccc(C(F)(F)F)c2Cl)c1 [Compound 5, N-{3-[2-Chloro-3-(trifluoromethyl)phenoxy]phenyl}-4,4,4-trifluorobutane-1-sulfonamide] | 175 ± 42 nM | 95% | – | – | – |
| N#Cc1ccccc1Oc1cccc(NS(=O)(=O)CCCC(F)(F)F)c1 [Compound 6, N-[3-(2-Cyanophenoxy)phenyl]-4,4,4-trifluorobutane-1-sulfonamide] | 106 ± 8 nM | 95% | – | – | – |
| CCCCCS(=O)(=O)Nc1cccc(Oc2cccc(C(F)(F)F)c2C#N)c1 [Compound 7, N-{3-[2-Cyano-3-(trifluoromethyl)phenoxy]phenyl}pentane-1-sulfonamide] | 248 ± 108 nM | 76% | – | – | – |
| N#Cc1c(Oc2cccc(NS(=O)(=O)Cc3ccccc3)c2)cccc1C(F)(F)F [Compound 8, N-{3-[2-Cyano-3-(trifluoromethyl)phenoxy]phenyl}-1-phenylmethanesulfonamide] | 228 ± 134 nM | 102% | 131 to 132 °C | – | – |
| O=S(=O)(Cc1ccccc1)Nc1cccc(Oc2cccc(C(F)(F)F)c2Cl)c1 [Compound 9, N-{3-[2-Chloro-3-(trifluoromethyl)phenoxy]phenyl}-1-phenylmethanesulfonamide] | 255 ± 62 nM | 78% | 129 to 130 °C | – | – |
| N#Cc1ccccc1Oc1cccc(NS(=O)(=O)Cc2ccccc2)c1 [Compound 10, N-[3-(2-Cyanophenoxy)phenyl]-1-phenylmethanesulfonamide] | 164 ± 32 nM | 82% | – | – | – |
| N#Cc1c(Oc2cccc(NS(=O)(=O)Cc3ccccc3Cl)c2)cccc1C(F)(F)F [Compound 11, 1-(2-Chlorophenyl)-N-{3-[2-cyano-3-(trifluoromethyl)phenoxy]phenyl}methanesulfonamide] | – | – | 121 to 122 °C | loss of activity; also recorded: Inactive | – |
| N#Cc1c(Oc2cccc(NS(=O)(=O)Cc3cccc(Cl)c3)c2)cccc1C(F)(F)F [Compound 12, 1-(3-Chlorophenyl)-N-{3-[2-cyano-3-(trifluoromethyl)phenoxy]phenyl}methanesulfonamide] | – | – | 144 to 145 °C | loss of activity; also recorded: Inactive | – |
| N#Cc1c(Oc2cccc(NS(=O)(=O)Cc3ccc(Cl)cc3)c2)cccc1C(F)(F)F [Compound 13, 1-(4-Chlorophenyl)-N-{3-[2-cyano-3-(trifluoromethyl)phenoxy]phenyl}methanesulfonamide] | – | 95% | 115 to 116 °C | – | hCB1 cAMP potency compared to the unsubstituted benzylsulfonamide 8 ([2]; fold more potent than 8): about 10 ×; EC50 [2, 4]: 25 ± 4 nM |
| N#Cc1c(Oc2cccc(NS(=O)(=O)c3cccc(OC(F)(F)F)c3)c2)cccc1C(F)(F)F [Compound 14, N-{3-[2-Cyano-3-(trifluoromethyl)phenoxy]phenyl}-3-(trifluoromethoxy)benzene-1-sulfonamide] | – | – | 120 to 121 °C | Inactive | – |
| N#Cc1c(Oc2cccc(NS(=O)(=O)c3ccc(OC(F)(F)F)cc3)c2)cccc1C(F)(F)F [Compound 15, N-{3-[2-Cyano-3-(trifluoromethyl)phenoxy]phenyl}-4-(trifluoromethoxy)benzene-1-sulfonamide] | – | – | 164 to 165 °C | Inactive | – |
| CCCCCC(=O)Nc1cccc(Oc2cccc(C(F)(F)F)c2C#N)c1 [Compound 16, N-{3-[2-Cyano-3-(trifluoromethyl)phenoxy]phenyl}hexanamide] | – | – | 95 to 96 °C | Inactive | – |
| CCCCOC(=O)Nc1cccc(Oc2cccc(C(F)(F)F)c2C#N)c1 [Compound 17, Butyl N-{3-[2-Cyano-3-(trifluoromethyl)phenoxy]phenyl}carbamate] | – | – | – | Inactive | – |
| CCCCNC(=O)Nc1cccc(Oc2cccc(C(F)(F)F)c2C#N)c1 [Compound 18, 3-Butyl-1-{3-[2-cyano-3-(trifluoromethyl)phenoxy]phenyl}urea] | – | – | – | Inactive | – |
| CCCCN(C)C(=O)Nc1cccc(Oc2cccc(C(F)(F)F)c2C#N)c1 [Compound 19, 3-Butyl-1-{3-[2-cyano-3-(trifluoromethyl)phenoxy]phenyl}-3-methylurea] | – | – | – | Inactive | – |
| N#Cc1c(Oc2cccc(NC(=O)Cc3ccccc3)c2)cccc1C(F)(F)F [Compound 20, N-{3-[2-Cyano-3-(trifluoromethyl)phenoxy]phenyl}-2-phenylacetamide] | 474 ± 174 nM | < 20% | 136 to 137 °C | – | – |
| N#Cc1c(Oc2cccc(NS(=O)(=O)NC3CCCCC3)c2)cccc1C(F)(F)F [Compound 21, N-Cyclohexyl({3-[2-cyano-3-(trifluoromethyl)phenoxy]phenyl}mamino)sulfonamide] | – | 27% | 199 to 200 °C | – | Cmax [1]: ~75 ng/mL; Kp [1]: 0.17; hCB1 cAMP Efficacy [2]: 27 ± 18%; EC50 [2, 4]: 139 ± 24 nM; Ki [3]: ~1500 nM |
| CCCCCS(=O)(=O)Nc1ccc(Oc2cccc(C(F)(F)F)c2C#N)cc1 [Compound 22, N-{4-[2-Cyano-3-(trifluoromethyl)phenoxy]phenyl}pentane-1-sulfonamide] | – | – | 94 to 95 °C | Inactive | – |
| N#Cc1c(Oc2ccc(NS(=O)(=O)Cc3ccccc3)cc2)cccc1C(F)(F)F [Compound 23, N-{4-[2-Cyano-3-(trifluoromethyl)phenoxy]phenyl}-1-phenylmethanesulfonamide] | – | – | 166 to 167 °C | Inactive | – |
| N#Cc1c(Oc2ccc(NC(=O)Cc3ccccc3)cc2)cccc1C(F)(F)F [Compound 24, N-{4-[2-Cyano-3-(trifluoromethyl)phenoxy]phenyl}-2-phenylacetamide] | 366 ± 136 nM | 36% | 200 to 201 °C | – | Cmax [1]: ~730 ng/mL; Kp [1]: 0.79; hCB1 cAMP Efficacy [2]: 36 ± 14% |
